According to US11147272B2, “Pyridone compounds and agricultural and horticultural fungicides comprising the same as active ingredients” (MITSUI CHEMICALS AGRO, INC., priority 2017, dated 2021):

What was measured:
Alternaia brassicicola = test: Test Example C: Alternaria sooty spot on cabbage; assay type: in vivo; conditions: Alternaria sooty spot on cabbage; class of control value
Description: Seeds of a test plant (cabbage variety: Shikidori) were planted and cultivated until the cotyledons extended.
<Control Value> Control value=100{1−(n/3)}

Botrytis cinerea = test: Test Example B: Gray mold on tomato; conditions: Gray mold on tomato; class of control value
Puccinia recondita = test: Test Example E: Brown rust on wheat; assay type: in vivo; conditions: Brown rust on wheat; class of control value
[1] = system: Blumeria graminis f. sp. hordei; test: Test Example D: Powdery mildew on barley; conditions: Powdery mildew on barley; class of control value
Plasmopara viticola = test: Test Example G: Downy mildew on vine; conditions: Downy mildew on vine (Neomuscat); 250 ppm spray, 2.5 ml/pot; assessed 7 to 10 days after inoculation
Magnaporthe grisea = test: whole plant or invertebrate; assay type: in vivo; conditions: Blast on rice; class of control value
Phytophthora infestans = test: whole plant or invertebrate; assay type: in vivo; conditions: Late blight on tomato; class of control value
[2] = system: Colletotrichum orbiculare; test: Test Example H: Anthracnose on cucumber; conditions: Anthracnose on cucumber (Sagami Hanjiro); 250 ppm spray, 2.5 ml/pot; assessed 6 to 10 days after inoculation

SMILES | Test C control value class (Alternaia brassicicola) | Test B control value class (Botrytis cinerea) | Test E control value class (Puccinia recondita) | Test D control value class [1] | Test G control value class (Plasmopara viticola) | Test A control value class (Magnaporthe grisea) | Test F control value class (Phytophthora infestans) | Test H control value class [2]
CCC(C)c1cc(Cl)c(=O)n(CC)c1-c1c(F)cc(OC)cc1F (stereo not shown) [compound 35] | H (more than 50% control value) | H (more than 50% control value) | H (more than 50% control value) | H (more than 50% control value) | L (50% or less control value) | H (more than 50% control value) | L (50% or less control value) | H (more than 50% control value)
CCC(C)C1=C(c2c(F)cc(OC)cc2F)N(CC)C(=O)C(Br)C1 (stereo not shown) [compound 36] | H (more than 50% control value) | H (more than 50% control value) | H (more than 50% control value) | H (more than 50% control value) | H (more than 50% control value) | H (more than 50% control value) | L (50% or less control value) | H (more than 50% control value)
CCn1c(-c2c(F)cc(F)cc2F)c(CC(C)C)ccc1=O [compound 37] | L (50% or less control value) | L (50% or less control value) | L (50% or less control value) | L (50% or less control value) | L (50% or less control value) | H (more than 50% control value) | L (50% or less control value) | L (50% or less control value)
CCn1c(-c2c(F)cc(F)cc2F)c(CC(C)C)ccc1=O [compound 38] | L (50% or less control value) | H (more than 50% control value) | H (more than 50% control value) | H (more than 50% control value) | L (50% or less control value) | H (more than 50% control value) | L (50% or less control value) | L (50% or less control value)
CCn1c(-c2c(F)cc(OC)cc2F)c(CC(C)C)ccc1=O [compound 39] | H (more than 50% control value) | H (more than 50% control value) | H (more than 50% control value) | H (more than 50% control value) | H (more than 50% control value) | H (more than 50% control value) | L (50% or less control value) | H (more than 50% control value)
CCn1c(-c2c(F)cc(F)cc2F)c(CC(C)C)cc(Br)c1=O [compound 40] | H (more than 50% control value) | H (more than 50% control value) | H (more than 50% control value) | H (more than 50% control value) | L (50% or less control value) | H (more than 50% control value) | L (50% or less control value) | H (more than 50% control value)
CCn1c(-c2c(F)cc(F)cc2F)c(CC(C)C)cc(Cl)c1=O [compound 41] | H (more than 50% control value) | H (more than 50% control value) | H (more than 50% control value) | H (more than 50% control value) | H (more than 50% control value) | H (more than 50% control value) | L (50% or less control value) | H (more than 50% control value)
CCn1c(-c2c(F)cc(OC)cc2F)c(CC(C)C)cc(Cl)c1=O [compound 42] | H (more than 50% control value) | H (more than 50% control value) | H (more than 50% control value) | H (more than 50% control value) | H (more than 50% control value) | H (more than 50% control value) | L (50% or less control value) | H (more than 50% control value)
CCn1c(-c2c(F)cc(OC)cc2F)c(CC(C)C)cc(Br)c1=O [compound 43] | H (more than 50% control value) | H (more than 50% control value) | H (more than 50% control value) | H (more than 50% control value) | H (more than 50% control value) | H (more than 50% control value) | L (50% or less control value) | H (more than 50% control value)
CCn1c(-c2c(F)cccc2F)c(CO)cc(Cl)c1=O [compound 44] | H (more than 50% control value) | H (more than 50% control value) | H (more than 50% control value) | L (50% or less control value) | L (50% or less control value) | L (50% or less control value) | L (50% or less control value) | L (50% or less control value)
CCn1c(-c2c(F)cccc2F)c(COC)cc(Cl)c1=O [compound 45] | H (more than 50% control value) | H (more than 50% control value) | H (more than 50% control value) | H (more than 50% control value) | L (50% or less control value) | H (more than 50% control value) | L (50% or less control value) | L (50% or less control value)
CCC(O)c1cc(Cl)c(=O)n(CC)c1-c1c(F)cc(F)cc1F (stereo not shown) [compound 46] | H (more than 50% control value) | H (more than 50% control value) | H (more than 50% control value) | H (more than 50% control value) | L (50% or less control value) | H (more than 50% control value) | L (50% or less control value) | H (more than 50% control value)
CCC(OC)c1cc(Cl)c(=O)n(CC)c1-c1c(F)cc(F)cc1F (stereo not shown) [compound 47] | H (more than 50% control value) | H (more than 50% control value) | H (more than 50% control value) | H (more than 50% control value) | H (more than 50% control value) | H (more than 50% control value) | L (50% or less control value) | H (more than 50% control value)
CCC(OC)c1cc(Cl)c(=O)n(CC)c1-c1c(F)cc(OC)cc1F (stereo not shown) [compound 48] | H (more than 50% control value) | H (more than 50% control value) | H (more than 50% control value) | H (more than 50% control value) | H (more than 50% control value) | H (more than 50% control value) | L (50% or less control value) | H (more than 50% control value)
